Source: US11439709B2, “Phospholipid ether analogs as cancer-targeting drug vehicles” (Cellectar Biosciences, Inc., priority 2014, dated 2022)
One block for each molecule: values may come before it.

Experiments:
[1] = tested on: non-small cell lung carcinoma (NSCLC) tumors; assay: Clinical evaluation of 131I-CLR1404 in NSCLC patients (gamma imaging); assay type: in vivo, human; conditions: two patients with advanced NSCLC; injection of <1 mCi 131I-CLR1404
Description: To date, two patients with advanced NSCLC were imaged after an injection of <1 mCi of ^131I-CLR1404. Blood and urine samples were collected at predetermined times, and gamma imaging performed at several time points following administration.
Materials and Methods: Following intravenous injection of iodine-131 labeled CLR1404 (1 mCi/20 μg), patients with advanced NSCLC where scanned at 3, 6, 24, 48, 96 h and at 7 and 11 days on a GE Maxxus dual Head SPECT scanner. Blood and urine samples were collected for pharmacokinetic analysis as well as clinical hematologic, renal, and hepatic bioanalysis.

[2] = tested on: xenograft, orthotopic and transgenic cancer and cancer stem cell derived animal models; assay: Tumor selectivity of radioiodinated CLR1404 across animal tumor models (overall count); assay type: in vivo; conditions: transgenic and spontaneous rodent models
Description: All described animal studies were performed according to animal protocols approved by the Institutional Animal Care and Use Committee. Female athymic nude mice (Hsd:Athymic Nude-Foxnlnu or Crl:NU-Foxn1nu, Charles River Laboratories) about 4 to 5 weeks of age, 16 to 18 g (n=6), were used for human tumor xenograft studies. Mice were anesthetized with isoflurane and injected subcutaneously with viable tumor cells in 100 μl of Dulbecco's PBS (or, for glioma cells, […] of PBS) into the right flank. Inoculum sizes were 1×10^6 (for renal, ovarian, glioma, pancreatic, prostate, and NSCLC models), 2×10^6 (for colorectal and uterine models), or 3×10^6 (breast).
Radioiodinated ^124l-LR1404 was tested. in subcutaneous and orthotopic xenografts of 60 different spontaneous, transgenic, human, and rodent malignant cell lines and tumor types. […] Representative examples are of both human (FIG. 5A-5l) and rodent (FIG. 5J-M) tumors.

[3] = tested on: human RL-251 tumor xenograft; assay: Prolonged retention of 131I-CLR1404 by RL-251 tumor xenograft; assay type: in vivo, SCID mouse; conditions: See FIG. 3
Source text: FIG. 3. Prolonged retention of ^131ICLR1404 by human RL-251 tumor xenograft in SCIO mouse.

[4] = tested on: cancer cell lines (renal, ovarian, pancreatic, melanoma, and prostate); assay: Uptake of CLR1501 by cancer cell lines versus normal fibroblasts (confocal microscopy); assay type: cell-based; conditions: 24 hours; five cancer cell lines (renal, ovarian, pancreatic, melanoma, prostate) vs normal human skin fibroblasts; 5 or 7.5 μM
Source text: Human cancer cell lines were purchased from the American Type Culture Collection (ATCC). They included the following: Caki-2 (renal; clear cell carcinoma), HCT-116 (colorectal carcinoma); MES-SA/Dx5 (uterine sarcoma) [all maintained in McCoy's 5a medium supplemented with 10% fetal bovine serum (FBS)], Ovcar-3 (ovarian adenocarcinoma) [maintained in RPMI medium supplemented with 20% FBS], U87-MG (glioma) [maintained in minimum essential medium supplemented with 10% FBS], Mia Paca-2 (pancreatic carcinoma) (maintained in Dulbecco's modified Eagle's medium supplemented with 10% FBS), PC-3 (prostate carcinoma) (maintained in F-12K medium supplemented with 10% FBS), MDA-MB-231 (triple-negative mammary gland adenocarcinoma) (maintained in Leibovitz's medium supplemented with 10% FBS), and A549 (non-small cell lung carcinoma) (maintained in F-12 medium supplemented with 10% FBS). Normal human skin fibroblasts were purchased from ATCC and grown in Fibroblast Basal Medium PCS-201-030 supplemented with serum-free kit (Fibroblast Growth. Kit-Serum-Free PCS-201-040). […]
All cells were maintained at 37° C. in appropriate medium supplemented with 10% FBS and 5% CO2. […] The emission signal of CLRI 50 I was detected using Alexa Fluor 488 filters (ex/em 480/520 nm).

[5] = tested on: human glioblastoma stemlike cells and serum-cultured human glioblastoma cells; conditions: Weichert J. P., et al. (2014), FIG. 2; cited from earlier work
C6 glioma = assay: Rat C6 glioma model, NM404 imaging and tissue distribution; assay type: in vivo; conditions: for Tumor to brain ratio: C6 glioma-bearing rats
Description: Materials and Methods: All animals were housed and handled in accordance with the University of Wisconsin Research Animal Resources Center guidelines. Rat C6 glioma cells were propagated in DMEM medium (Life Technologies, Gaithersburg, Md.) supplemented with 10% heat-inactivated FBS (Bio Whittaker, Walkersville, Md.), 100 U/ml penicillin G, […] streptomycin, and 0.01 M HEPES (Life Technologies, Gaithersburg, Md.). Intracranial tumor implantation was performed as described previously. Cohen J D, et al., Intracranial C6 glioma model in adult Wistar-Furth rats. J Neuro Oncol 1990 8(1):95-6. Briefly, 1×10^6 C6 cells were resuspended in […] 1.2% methylcellulose and injected into the frontal lobes of anesthetized female Wistar rats (Harlan, Indianapolis, Ind.). Sham-operated animals received intracranial injections of an equal volume of methylcellulose without tumor cells.
Imaging Studies: Ten days after implantation, the presence of intracranial tumors was confirmed with MM. Briefly, anesthetized rats (6) received 2 ml of Gadodiamide (Gd, Omniscan 287 mg/ml, Nycomed, Princeton, N.J.) intraperitoneally and imaged 10 min later using a 1.5 Tesla clinical MR system (GE Signa LX) and a GE phased array extremity coil. The Tl-weighted (TR=500 ms, TE=I6.5 ms) multislice sequences covering the entire brain of each rat were inspected to select tumor-bearing rats with varying tumor sizes, and sham-operated rats for NM404 injections.
NM404 [18-(4-iodophenyl)-octadecylphosphocholine] (100 mg) was radioiodinated with ^125l via isotope exchange with Na^125I in a melt of pivalic acid. Weichert, et al. Int J Appl Rad Isotopes 1986; 37:907-913. NM404 has the same chemical structure as CLR1404 except that it is radioiodinated with ^125l instead of ^124l or ^131l. Following HPLC purification NM404 was dissolved in an aqueous 2% Polysorbate 20 solution prior to tail vein injection (5: −20 μCi/200 g rat) into four tumor-bearing and three sham-operated rats. At 1 (n=1), 2 (n=1), and 4 (n=2) days after NM404 injection, animals were euthanized (CO2) and brains were excised and imaged on a modified Bioscan AR2000 radio-TLC scanner (1 mm increments at 2 min acquisition/lane and 1 mm high-resolution collimator). In addition, normal brain, blood, kidney, liver, spleen, thyroid, and tumor tissues were weighed, and radioactivity counted in a gamma counter. The tissue distribution of radioactivity was then correlated to brain histology.

PC-3 cells = assay: Uptake of 125I-CLR1404 by PC-3 cells after lipid raft disruption with filipin III; assay type: cell-based; conditions: PC-3 cells pretreated with 2 μg/ml filipin III 15 min, then 125I-CLR1404 for 1 h; compared to untreated control cells
Description: PC-3 cells were pretreated with either 2 μg/ml filipin III or vehicle for 15 min, then washed and incubated with 2 μCi of ^125I-CLR1404 for 1 h. The media was removed and the cells were washed with phosphate buffered saline containing 0.1% bovine serum albumin, trypsinized, then split into two samples for determination of cell number by DNA content (A280 compared to a cell line specific standard curve) and counts per minute using a Gamma Counter (Perkin Elmer).

tumor uptake and retention in the primary lung tumor [1]: significant tumor uptake and retention
models showing tumor selectivity / selective and prolonged tumor retention [2]: 55/60
time remaining in cancer cells [3]: up to 20 days
SMILES: C[N+](C)(C)CCOP(=O)([O-])OCCCCCCCCCCCCCCCCCCc1ccc(I)cc1 [CLR1404, 18-(4-iodophenyl)-octadecylphosphocholine]

SMILES: C[N+](C)(C)CCOP(=O)([O-])OCCCCCCCCCCCCCCCCCCc1ccc(C2=C3C=CC=[N+]3[B-](F)(F)n3cccc32)cc1 [CLR1501]
preferential uptake in cancer cell lines compared to normal fibroblasts [4]: five to nine
uptake compared to normal human astrocytes and fetal human neural stem cells [5]: enhanced uptake

Tumor to brain ratio (C6 glioma; 48 h after tail vein injection): 12.2
Tumor to brain ratio (C6 glioma; 96 h after tail vein injection): 6.7
Radioactivity in normal brain tissue (C6 glioma; sham operated control animals): minimal
SMILES: C[N+](C)(C)CCOP(=O)([O-])OCCCCCCCCCCCCCCCCCCc1ccc(I)cc1 [NM404, 18-(4-iodophenyl)-octadecylphosphocholine]
uptake and retention in gliomas (imaging) (C6 glioma; gliomas ranging from 3-5 mm in diameter): striking uptake and prolonged retention in all gliomas
less uptake after disruption of lipid rafts (PC-3 cells): ~40%
